In ChEMBL document CHEMBL4028819, “Synthesis, antiplatelet and antithrombotic activities of resveratrol derivatives with NO-donor properties” (Bioorg Med Chem Lett, 2017) one finds Activity, inhibition and Time data, which are given here for 14 molecules.

The source made the active and inactive calls. The calls are words filed in the database; no cut-off is given here.

Series [1] is described as follows: Induction of NO release assessed as nitrite formation in aqueous buffer at pH 7.4 measured after 1 hr in presence of L-cysteine by Griess assay. More on the design: concentration or dose not given beside the values.
The test system of series [2] is Platelet. Description: Antiplatelet activity in Wistar rat platelet rich plasma assessed as inhibition of collagen-induced platelet aggregation at 150 uM preincubated for 1 min followed by collagen addition by aggregometric analysis relative to control. Format: functional.
The subject of series [3] is Platelet. In words: Antiplatelet activity in Wistar rat platelet rich plasma assessed as inhibition of ADP-induced platelet aggregation at 150 uM preincubated for 1 min followed by ADP addition by aggregometric analysis relative to control. It is filed as functional.
The test system of series [4] is Platelet. In words: Antiplatelet activity in Wistar rat platelet rich plasma assessed as inhibition of arachidonic acid-induced platelet aggregation at 150 uM preincubated for 1 min followed by arachidonic acid addition by aggregometric analysis relative to control. It is filed as functional.
For series [5], the system named is Mus musculus. In words: Toxicity in Swiss albino mouse assessed as bleeding time at 100 umol/10 g administered orally 60 mins prior to test by tail transection method. To be noted: in vivo, po, 1 h.
Series [6] has as its system Mus musculus. Description: Anti-thrombotic activity in Swiss albino mouse assessed as protection against collagen/epinephrine-induced pulmonary thromboembolism at 100 umol/10 g, po administered as single dose pretreated for 60 mins followed by thrombotic challenge relative to control. Format: functional.

For the molecule `O=C(N/N=C/c1ccc(Oc2no[n+]([O-])c2S(=O)(=O)c2ccccc2)cc1)c1ccccc1O`, the Activity in series [1] is 24.5%. Moreover, the inhibition at 150 µM worked out at 34.4% in series [2], 74.3% in series [3] and 8.5% in series [4].

For the molecule `CC(=O)Oc1ccccc1C(=O)O` [ASPIRIN], the Time in series [5] is given as 800 s. In series [6], the Activity worked out at 40%. In addition, the inhibition at 150 µM in series [2] stood at 63.4%; in series [3], 27.7%; in series [4], 28.9%.

As for `O=C(N/N=C/c1cccc(O)c1)c1cccc(O)c1`, the inhibition at 150 µM is 29.1% in series [2], 46.1% in series [3] and 48.2% in series [4].

Regarding `O=C(N/N=C/c1cccc(O)c1)c1ccccc1O`, the inhibition at 150 µM in series [2] was 27.5%; in series [3], 56%; in series [4], 60.8%.

As to `O=C(N/N=C/c1cccc(O)c1)c1ccc(O)cc1`, the inhibition at 150 µM turned out to be 33.1% in series [2], 42.4% in series [3] and 74.1% in series [4].

Regarding `O=S(=O)(c1ccccc1)c1no[n+]([O-])c1S(=O)(=O)c1ccccc1`, the Activity in series [1] was 32.1%. Moreover, the outcome in series [6] was inactive. For the same molecule, the inhibition at 150 µM in series [2] was determined as 29.7%; in series [3], 89.8%; in series [4] it was 6.7%.

For the molecule `O=C(N/N=C/c1ccc(O)cc1)c1ccccc1O`, the results for the inhibition at 150 µM in series [2], in series [3] and in series [4] were 35.9%, 58.2% and 42.5%, respectively.

Regarding `O=C(N/N=C/c1ccc(O)cc1)c1ccc(O)cc1`, the Time in series [5] is 200 s. In addition, in series [6], the Activity is on record as 40%. The inhibition at 150 µM was found to be 44% in series [2], 31.3% in series [3] and 79.6% in series [4].

On to `O=C(N/N=C/c1cccc(Oc2no[n+]([O-])c2S(=O)(=O)c2ccccc2)c1)c1ccccc1O`, for which the Activity in series [1] is 25.3%. The inhibition at 150 µM in series [2] came out at 25.5%; in series [3], 84.2%; in series [4], 17%.

`O=C(N/N=C/c1cccc(Oc2no[n+]([O-])c2S(=O)(=O)c2ccccc2)c1)c1cccc(O)c1`: the Activity in series [1] was found to be 24.1%. Besides, the inhibition at 150 µM in series [2] was found to be 44.8%; in series [3], 88.4%; in series [4], 25%.

As to `O=C(N/N=C/c1cccc(Oc2no[n+]([O-])c2S(=O)(=O)c2ccccc2)c1)c1ccc(O)cc1`, the Activity in series [1] is 27.4%. The inhibition at 150 µM is 39.9% in series [2], 91.9% in series [3] and 14.3% in series [4].

As for `O=C(N/N=C/c1ccc(Oc2no[n+]([O-])c2S(=O)(=O)c2ccccc2)cc1)c1ccc(O)cc1`, the Time in series [5] is on record as 380 s. The results for the Activity in series [1] and in series [6] were 25.8% and 80%, respectively. Besides, the inhibition at 150 µM came to 72.2% in series [2], 87.1% in series [3] and 20.3% in series [4].

On to `O=C(N/N=C/c1ccc(O)cc1)c1cccc(O)c1`, for which the figures for the inhibition at 150 µM in series [2], in series [3] and in series [4] were 19.1%, 60.3% and 72.8%, respectively.

Consider `O=C(N/N=C/c1ccc(Oc2no[n+]([O-])c2S(=O)(=O)c2ccccc2)cc1)c1cccc(O)c1`, for which the Activity in series [1] worked out at 26.2%. Moreover, the inhibition at 150 µM in series [2] was found to be 54.3%; in series [3], 82.2%; in series [4] it was 37.3%.
